Here are results for three compounds from patent US20240252456A1, “ORAL COMPOSITION, SKIN COSMETIC AND HAIR COSMETIC” (MARUZEN PHARMACEUTICALS CO., LTD., priority 2021, published 2024).

One assay deals with FLG mRNA. Kind of assay: Filaggrin (FLG) mRNA expression promotive action test. The assay is classed as cell-based, human. Conditions: NHEK, 24 hours, corrected with GAPDH. As to the method: Normal human neonatal epidermal keratinocytes (NHEK) were precultured using normal human epidermal keratinocyte growth medium (KGM), and the cells were collected by a trypsin treatment. The collected cells were diluted with KGM to a cell density of 15×10^4 cells/mL, then seeded with 2 mL portions in a 6-well plate (30×10^4 cells/well), and cultured overnight under conditions of 37° C. and 5% CO2. After culturing, the medium was replaced with normal human epidermal keratinocyte basal medium (KBM, the above KGM without addition of growth additives (hEGF, BPE, insulin, antibacterial agents, hydrocortisone)), and culturing was further performed for 24 hours.
After culturing for 24 hours, the medium was removed, and 2 mL of each of test samples (Samples 1 to 3, see Table 18 below for final concentrations) dissolved in KBM was added to each well, and culturing was performed under conditions of 37° C. and 5% CO2 for 24 hours. As a control, culturing was performed in the same manner using KBM to which no sample was added. After culturing, the medium was removed, total RNA was extracted using ISOGEN II (available from NIPPON GENE CO., LTD.), each RNA amount was measured using a spectrophotometer, and the total RNA was prepared so as to be 150 ng/μL.
For FLG and GAPDH as an internal standard, the expression levels of mRNA were measured using the above total RNA as a template. Detection was performed through a two-step real-time RT-PCR reaction using a real-time PCR device, Thermal Cycler Dice Real Time System III (available from Takara Bio Inc.), with PrimeScript™ RT Master Mix (Perfect Real Time) (available from Takara Bio Inc.) and TB Green® Fast qPCR Mix (available from Takara Bio Inc.). Primers available from Takara Bio Inc. were used. The expression level of FLG mRNA was obtained as a value corrected with a value of GAPDH based on total RNA preparations prepared from cells cultured “with test sample addition” and “without sample addition.” From the obtained values, the FLG mRNA expression promotion rate (%) was calculated using the following equation.
Terms in the equation represent the following respective ones. • A: Corrected value with test sample addition • B: Corrected value without sample addition

The next assay addresses T1, elastase type III (Sus scrofa, UniProt P00772).
T1 construct: purchased SIGMA-Aldrich type III
The experiment in a line: Elastase activity inhibitory action test. The conditions noted are these: read-out: Elastase activity inhibition rate; for inhibition at 1000 µM: 1000 μmol/L. The assay is classed as biochemical. As to the method: In a 96-well microplate, 50 μL of each of test samples (Samples 1 to 3, see Table 8 below for final concentrations) prepared with 0.2 mol/L Tris-HCl buffer solution (pH 8.0) and 50 μL of 20 μg/mL elastase type III (available from SIGMA-Aldrich) solution was mixed. After that, 100 μL of 0.4514 mg/mL N-succinyl-Ala-Ala-Ala-p-nitroanilide (available from SIGMA-Aldrich) prepared with the above buffer solution was added, and the mixture was reacted at 25° C. for 15 minutes. After the reaction was completed, the absorbance at a wavelength of 415 nm was measured. In addition, a blank test without enzyme addition was performed in the same manner and correction was made. From the obtained results, the elastase activity inhibition rate (%) was calculated using the following equation.
Terms in the equation represent the following respective ones. • A: Absorbance at wavelength 415 nm without sample addition and with enzyme addition • B: Absorbance at wavelength 415 nm without sample addition and without enzyme addition • C: Absorbance at wavelength 415 nm with test sample addition and with enzyme addition • D: Absorbance at wavelength 415 nm with test sample addition and without enzyme addition

For assay [1], the target named is T2, hyaluronidase (Type IV-S) (Bos taurus, UniProt Q2YDK3).
T2 construct: purchased SIGMA Type IV-S; host or cells: bovine testes
T2 sequence (Q2YDK3 36-553): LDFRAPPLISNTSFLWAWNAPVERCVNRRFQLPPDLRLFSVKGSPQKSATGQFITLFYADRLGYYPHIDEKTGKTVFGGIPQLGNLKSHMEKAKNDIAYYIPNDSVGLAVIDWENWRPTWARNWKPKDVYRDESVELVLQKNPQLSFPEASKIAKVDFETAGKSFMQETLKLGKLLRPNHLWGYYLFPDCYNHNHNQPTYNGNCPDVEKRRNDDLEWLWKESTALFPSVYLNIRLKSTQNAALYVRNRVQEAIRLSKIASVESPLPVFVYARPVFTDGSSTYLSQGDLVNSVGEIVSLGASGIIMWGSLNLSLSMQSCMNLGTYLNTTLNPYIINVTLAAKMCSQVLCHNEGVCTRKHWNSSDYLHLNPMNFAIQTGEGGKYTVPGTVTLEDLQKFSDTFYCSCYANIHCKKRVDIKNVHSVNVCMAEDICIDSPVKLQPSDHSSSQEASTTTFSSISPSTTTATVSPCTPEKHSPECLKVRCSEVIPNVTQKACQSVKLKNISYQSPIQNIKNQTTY
Kind of assay: Hyaluronidase activity inhibitory action test. The assay is classed as biochemical, bovine. Conditions: read-out: Hyaluronidase activity inhibition rate; for inhibition at 250 µM: 250 μmol/L; for inhibition at 1000 µM: 1000 μmol/L. As to the method:
To 0.2 mL of each of test samples (Samples 1 to 3, see Table 27 below for final concentrations) dissolved in 0.1 mol/L acetate buffer solution (pH 3.5), 0.1 mL of hyaluronidase solution (available from SIGMA, Type IV-S, from bovine tests, 400 NF units/mL) was added, and the mixture was statically placed at 37° C. for 20 minutes. Furthermore, 0.2 mL of 2.5 mmol/L calcium chloride was added as an activator, and the mixture was statically placed at 37° C. for 20 minutes. To this was added 0.5 mL of 0.8 mg/mL sodium hyaluronate solution (from rooster comb), and the mixture was reacted at 37° C. for 40 minutes. After that, 0.2 mL of 0.4 mol/L sodium hydroxide was added to stop the reaction, it was cooled, and then 0.2 mL of boric acid solution was added to each reaction solution, which was boiled for 3 minutes. After cooling on ice, 6 mL of p-DABA reagent was added and reacted at 37° C. for 20 minutes. After that, the absorbance at a wavelength of 585 nm was measured.
In addition, as a blank, the same operation and absorbance measurement were performed in the case in which no enzyme solution was added. Furthermore, as a control, the same measurement was performed in the case in which distilled water was added without adding the sample solution. From the obtained results, the hyaluronidase activity inhibition rate (%) was calculated using the following equation.
Terms in the equation represent the following respective ones. • A: Absorbance at wavelength 585 nm with test sample addition and with enzyme addition • B: Absorbance at wavelength 585 nm with test sample addition and without enzyme addition • C: Absorbance at wavelength 585 nm without sample addition and with enzyme addition • D: Absorbance at wavelength 585 nm without sample addition and without enzyme addition

T1 sequence (P00772 27-266): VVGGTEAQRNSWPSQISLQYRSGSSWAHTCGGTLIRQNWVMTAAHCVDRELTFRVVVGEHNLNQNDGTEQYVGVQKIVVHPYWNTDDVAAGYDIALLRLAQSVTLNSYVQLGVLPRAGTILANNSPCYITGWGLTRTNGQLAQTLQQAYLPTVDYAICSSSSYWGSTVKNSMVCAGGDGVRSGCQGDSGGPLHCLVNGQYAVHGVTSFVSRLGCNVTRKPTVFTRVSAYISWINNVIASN

For the compound `O=C(O)CCc1ccccc1` [Sample 3, 3-phenylpropionic acid], the “FLG mRNA expression promotion rate” value in the assay on FLG mRNA (25 μmol/L) came to 196.6%. For the same compound, the inhibition at 1000 µM on elastase type III came out at 5%. Besides, in assay [1] (62.5 μmol/L), the inhibition at 62.5 µM was determined as 16.5%. In assay [1], the inhibition at 250 µM came out at 20.2% and the inhibition at 1000 µM stood at 41.1%.
With `O=C(O)CCc1ccc(O)cc1` [Sample 2, 3-(4-Hydroxyphenyl)propionic acid], the “FLG mRNA expression promotion rate” value in the assay with FLG mRNA (25 μmol/L) is on record as 168.2%; in the assay with FLG mRNA (100 μmol/L) it was 129.8%. Also, the inhibition at 1000 µM at elastase type III came to 4.2%; in assay [1] it was 15.8%.
For `O=C(O)CCc1ccc(O)c(O)c1` [Sample 1, 3,4-Dihydroxyhydrocinnamic acid], the “FLG mRNA expression promotion rate” value in the assay with FLG mRNA (25 μmol/L) is reported as 197.2%; in the assay with FLG mRNA (100 μmol/L) it was 342.0%. Further, the inhibition at 250 µM on elastase type III (250 μmol/L) was 3.2%; in assay [1], 4.9%. Further, at elastase type III (500 μmol/L), the inhibition at 500 µM amounted to 6.7%. Also, the inhibition at 1000 µM was 8.1% at elastase type III and 19.9% in assay [1].
